Experimental data reported in patent US20120238604A1, “CYTOTOXIC COMPOUNDS” (Molecular Discovery Systems, priority 2009, published 2012).

How the values were obtained:
[1] = tested on: Vascular endothelium MS-1 cells; assay: Disruption of the microtubule cytoskeleton of vascular endothelium cells; type: cell-based; details: 100 nM, 120 minutes
Description: After staining with Hoescht, TRITC-phalloidin, anti-beta tubulin antibody and Alexafluor 488 nm secondary antibody, the cells were imaged at 400× magnification by epifluorescence microscopy.

[2] = tested on: HeLa cells expressing H2B-GFP; assay: Inhibition of cell proliferation (GI50) by nuclear counts, IN Cell Analyser; type: cell-based, human; details: HeLa
Protocol: Table 3 HeLa cells expressing H2B-GFP were plated in 96-well plates and exposed to concentrations ranging from 100 μM to […] of the indicated compounds C1-C78. The number of cells was then determined every 24 hours by imaging of the plates using an IN Cell Analyser (GE Healthcare), followed by measurement of the number of intact cell nuclei using Developer™ software (GE Healthcare). Drug concentrations that cause 50% inhibition of cell proliferation (GI50) were determined from the nuclear counts using GraphPad Prism software or ED50v10 freeware.

[3] = tested on: HeLa cells expressing H2B-GFP; assay: Induction of mitotic arrest (EC50), mitotic index by phospho-histone 3 staining; type: cell-based; details: Homo sapiens, concentration for 50% induction of mitotic arrest, overnight, values in nM, read-out: EC50 (mitosis) (HeLa)
Protocol: Parallel plates were treated overnight with the compounds to visualize the mitotic cells by staining with anti-phospho-histone 3 and Alexafluor 546 nm secondary antibodies after fixation with 4% paraformaldehyde. Following imaging of the nuclear GFP and phospho-histone 3 signals using an IN Cell Analyser (GE Healthcare), determination of the mitotic index by analysis of the images with Developer™ software (GE Healthcare) permitted estimation of the concentration that leads to 50% induction of the mitotic arrest (EC50). It can be seen that inhibition of cell proliferation and mitosis correlate well for the compounds tested.

[4] = tested on: purified porcine brain tubulin; assay: In vitro microtubule assembly, light scattering at 350 nm; type: biochemical; details: 3 and 6 μM, 37° C.
Protocol: In vitro polymerisation of purified porcine brain tubulin at 37° C. in the presence of compound C9 (3 and 6 μM), 15 μM nocodazole, 2 μM vinblastine or an equal volume of carrier DMSO was measured over time as light scattering at 350 nm.

[5] = tested on: Vascular endothelium MS-1 cells; assay: Disruption of vascular endothelium cell adhesion (cell capillaries on Matrigel); type: cell-based; details: 300 nM, 60 minutes
Protocol: Following the addition of 300 nM compound C9 or an equivalent volume of DMSO carrier for 60 minutes, the extracellular matric plugs were imaged at 40× magnification by phase contrast microscopy.

[6] = tested on: HeLa cells expressing H2B-GFP; assay: Induction of apoptosis, Annexin V binding; type: cell-based, human; details: overnight; 20 μM compound A1 or 100 nM paclitaxel
Protocol: HeLa cells were exposed overnight to 20 μM compound A1 or 100 nM paclitaxel, stained with a fluorescent Annexin V marker of apoptosis and visualised by epifluorescence microscopy following fixation.
FIG. 3 The H2B-GFP-expressing HeLa cells were treated overnight with 20 μM compound A1 or 100 nM paclitaxel. The cells were then exposed to Annexin-V tagged with Alexafluor 546 nm and visualized using an epifluorescence microscope equipped for digital imaging following fixation with 4% para-formaldehyde.

[7] = tested on: HeLa cells expressing H2B-GFP; assay: Induction of mitotic arrest, phase-contrast microscopy; type: cell-based, human; details: overnight; 20 μM compound B3 or 100 nM paclitaxel
Protocol: (A) HeLa cells were exposed overnight to carrier (DMSO), 20 μM compound B3 or 100 nM paclitaxel, and visualized by phase-contrast microscopy.
FIG. 2 (A) The H2B-GFP-expressing HeLa cells (grown under identical culture conditions as described in Example 1) were exposed overnight to carrier (0.1% (v/v) DMSO), 20 μM compound B3 or 100 nM paclitaxel in DMSO. The cells were then visualized using a phase-contrast microscope equipped for digital imaging.

[8] = tested on: HeLa cells expressing H2B-GFP; assay: Induction of mitotic arrest, phospho-histone 3 marker of mitosis; type: cell-based, human; details: 4 hours; 20 μM compound or 100 nM paclitaxel
Protocol: (B) HeLa cells exposed for 4 hours to carrier (DMSO), 20 μM compound A1 or 100 nM paclitaxel were fixed and stained with anti-phospho-histone 3 marker of mitosis followed by fluorescent secondary antibody. The percentage of cells positive for phospho-histone 3 was determined by digital imaging and analysis of the fluorescence signals (B).
FIG. 2 (B) The H2B-GFP-expressing HeLa cells were treated for 4 hours with carrier (0.1% (v/v) DMSO), 20 μM compound A1 or 100 nM paclitaxel in DMSO. The cells were then briefly rinsed with phosphate-buffered saline (PBS) prior to fixation with 4% para-formaldehyde at ambient temperature. The fixed cells were then stained with mouse monoclonal anti-phospho-histone 3 antibody and Alexafluor 546 nm goat anti-mouse antibody (diluted 400× from commercial stocks into PBS containing 10 mg/ml bovine serum albumin (BSA)). The GFP and 546 nm fluorescence signals were then captured with an IN Cell Analyser 1000 (GE Healthcare) and the percentage of cells stained with the anti-phospho-histone 3 antibody determined using Developer™ software (GE Healthcare).

[9] = tested on: HeLa cells expressing H2B-GFP; assay: Dose-dependent inhibition of cell proliferation, cell counts over 0-96 h; type: cell-based, human; details: 0.2-20 μM
Protocol: FIG. 4. Dose-dependent inhibition of cell proliferation by compound B3. The proliferation of HeLa cells at decreasing concentrations (from 20 to 0.2 μM) of polokinase inhibitor (PKi), KSP inhibitor (STLC) and compound B3 was determined (relative to paclitaxel at 400 to 10 nM) by counting of the cells over time (0-96 h).
FIG. 4 HeLa cells expressing H2B-GFP were plated in multi-well plates and exposed to 0.2-20 μM of polokinase inhibitor (PKi), KSP inhibitor (STLC) and compound B3, or 10-400 nM of paclitaxel. The number of cells at 0, 24, 48, 72 and 96 h of treatment was determined by imaging of the GFP signal in the plates with an IN Cell Analyser (GE Healthcare) followed by measurement of the number of intact cell nuclei using Developer™ software (GE Healthcare).

[10] = tested on: HeLa cells expressing H2B-GFP; assay: Perturbation of mitotic spindle organisation and assembly, anti-β-tubulin staining; type: cell-based, human; details: 20 μM, overnight
Protocol: HeLa cells stably expressing a green fluorescent marker of nuclear DNA (H2B-GFP) were exposed overnight to carrier (DMSO) or 20 μM compounds A1 and B3. The cells were then fixed with methanol, stained with mouse monoclonal anti-β-tubulin antibody and Alexafluor 546 nm goat anti-mouse antibody, and fluorescent signal visualised by microscopy. The open circle indicates a cell with a perturbed mitotic spindle while the arrow indicates a cell with a mostly disassembled mitotic spindle.
These cells were exposed overnight to carrier (0.1% (v/v) DMSO) or an equivalent volume of DMSO containing compounds A1 and B3 (final concentration in the culture medium was 20 μM). The cells were then briefly rinsed with phosphate-buffered saline (PBS) prior to fixation with 100% methanol at −20° C. The fixed cells were then stained with mouse monoclonal anti-β-tubulin antibody and Alexafluor 546 nm goat anti-mouse antibody (diluted 400× from commercial stocks into PBS containing 10 mg/ml bovine serum albumin (BSA)). The GFP and 546 nm fluorescence signals were then visualised using a microscope equipped for digital confocal epifluorescence imaging. The open circle in FIG. 1 represents a cell with a perturbed mitotic spindle while the arrow points to a cell with a mostly unassembled mitotic spindle.

Row | SMILES | Disruption of the microtubule cytoskeleton [1] | Anti-proliferative activity (effect of substitution, in words) ([2]; text comment on Table 3) | GI50 ([2]; Homo sapiens, concentration causing 50% inhibition of cell proliferation, nuclear counts every 24 hours) | EC50 [3] | Inhibition of in vitro microtubule assembly [4] | Disruption of vascular endothelium cell adhesion [5] | Induction of apoptotic cells (Annexin-V binding) [6] | Accumulation of cells with mitotic phenotype [7] | Accumulation of cells stained with phospho-histone 3 marker of mitosis [8] | Concentration potently blocking cell proliferation [9] | Effect on mitotic spindle organisation and assembly [10]
1 | COc1ccccc1/C=N/NC(=S)Nc1ccccc1C(F)(F)F [C9] | Disruption of the microtubule cytoskeleton of vascular endothelium cells | greatly increase the anti-proliferative activity | 10 nM | 10 nM | Dose-dependent inhibition of in vitro microtubule assembly | Disruption of vascular endothelium cell adhesion | – | – | – | – | –
2 | CC(=O)O[C@H]1C(=O)[C@@]2(C)[C@H]([C@H](OC(=O)c3ccccc3)[C@]3(O)C[C@H](OC(=O)[C@H](O)[C@@H](NC(=O)c4ccccc4)c4ccccc4)C(C)=C1C3(C)C)[C@]1(OC(C)=O)CO[C@@H]1C[C@@H]2O [paclitaxel, reference compound] | – | – | – | – | – | – | induction of apoptotic cells | pronounced accumulation of round and translucent cells representing the mitotic phenotype | accumulation of cells that are stained with the phospho-histone 3 marker of mitosis | – | –
3 | COc1ccccc1/C=N/NC(=S)Nc1cccc(C)c1 [B3, 2-METHOXYBENZALDEHYDE N-(3-METHYLPHENYL)THIOSEMICARBAZONE] | – | – | – | – | – | – | – | pronounced accumulation of round and translucent cells representing the mitotic phenotype | accumulation of cells that are stained with the phospho-histone 3 marker of mitosis | > 1 µM | profoundly perturbs spindle function by blocking the assembly of spindle microtubule fibres
